Measurements from article PMC12388506, “Preclinical Evaluation of 2-Aminobenzothiazole Derivatives: In Silico, In Vitro, and Preliminary In Vivo Studies as Diabetic Treatments and Their Complications” (Molecules, 2025).

How the values were obtained:
IL-6 = assay: Ex vivo serum IL-6 quantification; type: in vivo, rat
Method: (§1) At the end of the study, animals fasted for 12 h and were taken to a humane endpoint, where blood samples were obtained. These were kept at room temperature for 30 min and then centrifuged at 4000 RPM for 15 min at 4 °C. Finally, the serum was used to perform 24-element blood chemistry and quantify Trolox-equivalent TAC [86], TNF-α [87], and IL-6 levels using commercial kits from Merck (Darmstadt, Germany), Sigma-Aldrich (St. Louis, MO, USA), Cat. No. MAK334-1KT, RAB0479-1KT, and RAB0311-1KT, respectively. In addition, insulin was quantified using the Rat Ins1/Insulin ELISA Kit, from Sigma-Aldrich, No. Cat. RAB0904-1KT [89] to determine the HOMA-IR index. All kits were performed according to the manufacturer’s instructions without modifications.

[1] = system: STZ-HFD-induced T2D Wistar rats; assay: Subchronic evaluation in STZ-HFD-induced T2D model; type: in vivo, rat; parameters: HbA1c: unit not given here
Method: (§2) In vivo experiments were conducted in an acute and a subchronic model, where Wistar rats (180–220 g) were used. The study covered a total period of 10 weeks and was carried out under the Mexican Standard, and the “Guide for the Care and Use of Laboratory Animals” of the National Research Council and Health Institutes was followed.
(§3) At first, animals were housed in polypropylene cages under conditions of controlled temperature (20–25 °C), relative humidity (36–60%), and light/dark cycles, with water ad libitum. Before starting the experiment, they were given a one-week acclimatization period to adapt to their new habitat. Once finalized, animals were fed an HFD for 3 weeks to generate insulin resistance.
After this period, the animals fasted for 12 h and then were administered intraperitoneally with a single dose of 35 mg/Kg of STZ dissolved in a buffer of 0.1 M citrate, pH 4.5 (prepared on the same day of administration). Once administered, the hypercaloric diet was maintained, and 10% sucrose solution was placed on demand for 2 days.
One week after administration, postprandial blood glucose levels were measured by venipuncture using a glucometer. Those animals that maintained a glucose level between 200 and 400 mg/dL were included in the study.
Treatments were administered daily as described above, adjusting the dose according to the weight of the individuals. Fasting glucose levels (6 h fast) were monitored every 7 days until the end of treatments at week 10 (Figure 14). Halfway through the last week of treatment, the OGTT was performed, administering a dose of 1.5 g/Kg of glucose orally and subsequently monitoring capillary blood glucose at 0, 15, 30, 60, 90, and 120 min [62]. In addition, a 24-element blood chemistry was measured in a Celercare V automated dry chemistry analyzer (Tianjin MNCHIP Technologies Co., Ltd., Tianjin, China) at the beginning and end of the model. For this purpose, the blood samples were obtained from the tail of the rat.
as §1

TNF-α = assay: Ex vivo serum TNF-α quantification; type: in vivo, rat
Method: as §1

[2] = system: STZ-HFD-induced T2D Wistar rats; assay: Acute evaluation of blood glucose in STZ-HFD-induced T2D model; type: in vivo, rat; conditions: 8d 32 mg/Kg oral
Method: as §2, §3
After this period, the animals fasted for 12 h and then were administered intraperitoneally with a single dose of 35 mg/Kg of STZ dissolved in a buffer of 0.1 M citrate, pH 4.5 (prepared on the same day of administration). […]
One week after administration, postprandial blood glucose levels were measured by venipuncture using a glucometer. […]
Once the experimental groups were formed, a fixed schedule was established for the daily oral administration of the respective treatments. […] On the third day of treatment, postprandial blood glucose was measured with a glucometer Freestyle® (Abbott Diabetes Care, Alameda, CA, USA), extracting a drop of blood from the caudal vein of each rat. […]

[3] = system: STZ-HFD-induced T2D Wistar rats; assay: Ex vivo serum total antioxidant capacity (Trolox equivalent); type: in vivo, rat
Method: as §1

ALR2 enzyme = target: T1, ALR2 enzyme (Homo sapiens, UniProt P15121); assay: ALR2 activity assay kit (ab273276), inhibition; type: biochemical;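 on relative ALR2 inhibition: inhibition calculated from the rate of NADPH cofactor consumption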
T1 construct: purchased ab273276
Method: The obtained dose–response curve had concentrations of 10 μM, 5 μM, 500 nM, 50 nM, and 5 nM.

FRAP assay = assay: FRAP assay
Method: All synthesized compounds were evaluated at 30 μM, 50 μM, 70 μM, 90 μM, and 110 μM under two of the most widely used methods in research to directly measure the antioxidant and anti-radical intrinsic capacity, FRAP, and ABTS assay, which were validated by a dose–response curve of 5-ASA as a reference. In the same way, these tests were carried out in triplicate using an assay kit (from Pharmaceutical and Biotechnological Innovation-Services) according to the manufacturer’s instructions.

[4] = Table S11, After 5 weeks of treatment
[5] = serum, end of treatment, mean ± SEM, n = 4
[6] = after the induction of T2D, before treatment

Compound: COC(=O)[C@H](Cc1ccccc1)N/C(=N\c1nc2ccccc2s1)SC [8d, Methyl (E)-((benzo[d]thiazol-2-ylimino)(methylthio)methyl)-L-phenylalaninate]
- effect on IL-6 and TNF-α levels (IL-6; IL-6 and TNF-α together): highest levels of both cytokines
- IL-6 (IL-6; [4]): 887.53 ± 243.91 pg/mL
- IL-6 (IL-6; [5]): 887.53 ± 243.91 pg/mL
- HOMA-IR ([1]; After 5 weeks of treatment): 1.66 ± 0.611
- R-QUICKI ([1]; After 5 weeks of treatment): 0.376 ± 0.031
- HbA1c ([1]; After 5 weeks of treatment, mean ± SEM, n = 4): 9.267 ± 0.802
- HOMA-IR ([1]; Final (end of 5 weeks treatment), PGZ 30 mg/Kg, 8d 32 mg/Kg, mean ± SEM, n = 4): 1.66 ± 0.61
- HOMA-IR ([1]; Initial (beginning of treatment), PGZ 30 mg/Kg, 8d 32 mg/Kg, mean ± SEM, n = 4): 4.22 ± 1.58
- HOMA-IR [1, 6]: 4.22 ± 1.577
- R-QUICKI [1, 6]: 0.318 ± 0.013
- HbA1c ([1]; after the induction of T2D, before treatment, mean ± SEM, n = 4): 8.633 ± 0.536
- adipogenic effect at necropsy ([1]; after treatment): clear adipogenic effect
- polydipsia (water consumption) ([1]; daily oral treatment): decreasing the polydipsia after the first week of treatment
- fasting blood glucose, subchronic ([1]; daily oral, 5 weeks): lower blood glucose levels close to the normoglycemia of the healthy group
- redistribution of adipose tissue from visceral to subcutaneous fat ([1]; necropsy): barely perceptible
- TNF-α (TNF-α; [4]): 5417.72 ± 2104.18 pg/mL
- TNF-α (TNF-α; [5]): 5417.72 ± 2104.2 pg/mL
- blood glucose after a single administration, without prior fasting [2]: ~ 200 mg/dL
- effect on total antioxidant capacity (TAC) [3]: did not improve TAC
- TAC Equivalent to Trolox [3, 4]: 79.26 ± 17.28 µM
- TAC Equivalent to Trolox [3, 5]: 79.26 ± 17.28 µM
- concentrations at which ALR2 was inhibited (ALR2 enzyme): below 10 µM
- concentration dependence of ALR2 inhibition (IC50 not calculable) (ALR2 enzyme; 10 μM to 5 nM): did not show a concentration-dependent response
- relative ALR2 inhibition (ALR2 enzyme; Inhibitor concentration 5 nm): 93.590%
- relative ALR2 inhibition (ALR2 enzyme; Inhibitor concentration 50 nm): 91.644%
- relative ALR2 inhibition (ALR2 enzyme; Inhibitor concentration 500 nm): 86.494%
- relative ALR2 inhibition (ALR2 enzyme; Inhibitor concentration 5000 nm): 80.389%
- relative ALR2 inhibition (ALR2 enzyme; Inhibitor concentration 10000 nm): 89.966%
- Percentage reduction of ferric ion to ferrous ion (FRAP) (FRAP assay; 30 µM): 12.7%
- Percentage reduction of ferric ion to ferrous ion (FRAP) (FRAP assay; 50 µM): 14.1%
- Percentage reduction of ferric ion to ferrous ion (FRAP) (FRAP assay; 70 µM): 15.1%
- Percentage reduction of ferric ion to ferrous ion (FRAP) (FRAP assay; 90 µM): 16.9%
- Percentage reduction of ferric ion to ferrous ion (FRAP) (FRAP assay; 110 µM): 18.4%
